In publication PMC8480759, “Inhibitors of histone deacetylase 6 based on a novel 3-hydroxy-isoxazole zinc binding group” (Journal of Enzyme Inhibition and Medicinal Chemistry, 2021):

What was measured:
[1] = test system: DU145 cells; assay: Anti-proliferative assay (MTT cell viability); format: cell-based, human; settings: for effect on proliferation rate of DU145 cells: 50 µM, MTT, 24, 48, 72 h; for anti-proliferative activity at the lowest concentrations: DU145, late phases, lowest concentrations (tested 1, 5, 10, 50 µM)
Description: (§1) The results corroborate the inhibitory activity of 17, 23, 25 and 27 at concentrations lower than 10 µM. […] HDACs contribution to CRPC is known[20] and the possibility to arrest CRPC proliferation by acting on HDAC targets is expanding in the scientific literature[21]^,[22]. After administration of the selected compounds for 24 h at 10 µM concentration, the effect on the acetylation levels of histone H3 and α-tubulin (respectively, HDAC1 and HDAC6 targets) was investigated. […] Lastly, in the same cell line, the anti-proliferative effect was measured in dose and time dependent manner (Figure S4).
Figure S4. Cell viability assay (MTT) of the tested compounds in human prostate cancer cell lines (DU145). Cells were treated with 4 increasing concentrations (1, 5, 10, and 50 µM) of tested compounds, monitored at 24, 48, and 72 hours and tested with SAHA and Tubastatin A as reference compounds. Data are expressed as mean ± SEM. […]
1.5 Anti-proliferative assay
Cell viability was determined on DU145 cell line using Thiazolyl Blue Tetrazolium Bromide [3-(4,5-dimethylthiazol-2-yl)-2,5-diphenyltetrazolium bromide] (MTT; Sigma-Aldrich) assay after treatment with new compounds at indicated concentrations. A total of 2 × 10^4 cells/well were plated in a 96-well plate and treated, in duplicates, with new compounds at different concentrations for 24, 48, and 72 hours. Absorbance was read at a wavelength of 570 nm with a TECAN M-200 reader (Tecan, Männedorf, Switzerland).

[2] = test system: acetylation levels of α-tubulin (HDAC6 target) in DU145 cells; assay: Western blot of α-tubulin acetylation in DU145 cells; format: cell-based, human; settings: 24 h, 10 µM
Description: as §1
Figure S3. Western blotting analysis of the tested and reference compounds SAHA and Tubastatin A on acetylation levels of histone H3 and α-tubulin in DU145 cells. GAPDH and H4 were used as a loading control. Densitometric values were analyzed using ImageJ Software and are reported on the top of bands as the ratio between loading control and acetylated target. […]
The resulting mixtures were incubated at 37 °C for 45min , after which 25 µL of 2X HDAC developer were added. Following incubation at RT for 15 min, fluorescence intensity was measured using a microplate reader (GloMax Discover System, Promega) at 365nm excitation and […] emission wavelengths.
IC50 values were calculated using the GraphPad Prism 6 program based on a log(inhibitor) vs response (variable slope) sigmoidal equation. […]

SMILES	effect on proliferation rate of DU145 cells [1]	anti-proliferative activity at the lowest concentrations [1]	effect on acetylation of α-tubulin [2]
Oc1cc(-c2ccc(NCc3ccccc3)cc2)on1 [Compound 23]	reduced the proliferation rate	exerted anti-proliferative activity	increased
Oc1cc(-c2ccc3c(c2)OCO3)on1 [Compound 25]	reduced the proliferation rate	exerted anti-proliferative activity	increased
